Test results as given in article PMC6413339 (EBioMedicine, 2019).
Entries after “also recorded” stand apart in the source; their conditions may differ.

Columns and labels:
MV4–11-luc cells = test: In vivo efficacy, orthotopic human AML model; details: for Photon intensity on whole body (mean±SEM): 25 mg/kg IP, 3×/week
Experimental: The in vivo efficacy of compounds was assessed in an orthotopic human AML model in NSG (NOD scid gamma, NOD-scid IL2Rg^null) mice that were bred at University of Maryland Baltimore (mating pairs acquired from Jackson Laboratories; Maine). […]. Three days later, engraftment was assessed by imaging on a Xenogen IVIS-2 Imaging System (Alameda) after an intraperitoneal (IP) injection of 150 mg/kg luciferin. Mice were sorted into four or five groups (n = 5) so that mean intensity (i.e., disease burden) was equal. Dosing started on day of sorting. Compounds were dissolved in 85% PBS (pH 7.4) buffer containing 10% DMSO and 5% Cremophore. The vehicle (buffer without compounds) was used as control. Mice were injected 3 to 5 days per week via IP injection. Mice were weighed on day of dosing and imaged once per week. […]. All mice were housed in a 12-h light/dark cycle with access to food and water ad libitum. Studies were performed with Institutional Animal Care and Use Committee (UMB and Purdue University) approval.
[…]. Female mice were dosed daily for 5 days via intraperitoneal injection and then monitored for an additional week for weight loss, a sign of toxicity in mice. […] To evaluate the anti-leukemic efficacy in vivo, six-week-old female NSG or NRG mice were injected intravenously with FLT3-ITD expressing acute myeloid leukemia cells (MV4–11), expressing luciferase. […] Dosing (i.p) with the compounds was then started. The mice were dosed with 25 mg/kg of the compounds three times a week (MWF). […] […].

MV4–11 cells = test: Trypan blue exclusion viable cell count; type: cell-based, human; details: 0.1–10 nM, 72 h
Experimental: To determine the effect of HSN431 on actual leukemia cell counts, MV4–11 cells were seeded into 96 well plates as above and treated with either DMSO vehicle, or HSN431 at the following concentrations: 0.1 nM, 0.2 nM, 0.5 nM, 1 nM, 2 nM, 5 nM, and 10 nM. Cells were incubated for 72 h, and then counted using trypan blue exclusion on the Countess automated cell counter (Life Technologies, Carlsbad, CA). Cell counts were performed in triplicates, and the averages, standard deviations and t-test statistical analyses were graphed using GraphPad Prism software (GraphPad, La Jolla, CA).

c-Myc = test: Western blot, MV4–11 cells; type: cell-based, human; details: 2 nM or 10 nM, 6 h and 48 h
Experimental: (§1) MV4–11 cultures were treated with 2 nM and 10 nM of compounds for 6 h and 48 h. Total protein extraction, gel separation, transfer and imaging of blots were performed as previously described. The following primary antibodies from Cell Signaling Technologies (MA, USA) were used: Phospho-p70S6K (cat. no. 9205, RRID: AB_330944), p70S6K (cat. no. 9202, RRID: AB_331676), Phospho-p38 (cat. no. 9211, RRID: AB_331641), p38 (cat. no. 9212, RRID: AB_330713), c-Myc (cat. no. 9402, RRID: AB_2151827), Phospho-FLT3 (cat. no. 3461, RRID: AB_331060), FLT3 (cat. no. 3462, RRID: AB_10693420), Phospho-STAT5 (cat. no. 9359, RRID: AB_823649), STAT5 (cat. no. 9363, RRID: AB_2196923), Phospho-ERK (cat. no. 9101, RRID: AB_331646), ERK (cat. no. 4695, RRID: AB_390779), Phospho-AKT (cat. no. 9271), AKT (cat. no. 9272, RRID: AB_329825), Phospho-Src (cat. no. 2101, RRID: AB_331697), Src (cat. no. 2110, RRID: AB_2106058), Phospho-STAT3 (cat. no. 9145, RRID: AB_2491009), STAT3 (cat. no. 12640, RRID: AB_2629499). Mouse anti-β-Actin antibody was purchased from Sigma (MO, USA). A horseradish peroxidase-conjugated anti-rabbit or anti-mouse antibody (Cell Signaling Technologies) was used as secondary antibody. Scanned images were analyzed using image J software.

phospho-Akt = test: Western blot, MV4–11 cells; type: cell-based, human; details: 2 nM or 10 nM, 6 h and 48 h
Experimental: as §1

phospho-ERK = test: Western blot, MV4–11 cells; type: cell-based, human; details: 2 nM or 10 nM, 6 h and 48 h
Experimental: as §1

phospho-FLT3 = test: Western blot, MV4–11 cells; type: cell-based, human; details: 2 nM or 10 nM, 6 h and 48 h
Experimental: as §1

phospho-STAT3 = test: Western blot, MV4–11 cells; type: cell-based, human; details: 2 nM or 10 nM, 6 h and 48 h
Experimental: as §1

phospho-STAT5 = test: Western blot, MV4–11 cells; type: cell-based, human; details: 2 nM or 10 nM, 6 h and 48 h
Experimental: as §1

phospho-Src = test: Western blot, MV4–11 cells; type: cell-based, human; details: 2 nM or 10 nM, 6 h and 48 h
Experimental: as §1

phospho-p38 = test: Western blot, MV4–11 cells; type: cell-based, human; details: 2 nM or 10 nM, 6 h and 48 h
Experimental: as §1

phospho-p70S6K = test: Western blot, MV4–11 cells; type: cell-based, human; details: 2 nM or 10 nM, 6 h and 48 h
Experimental: as §1

[1] = system: AML cell lines (MV4–11, MOLM-14, MOLM-14 (ITD, D835Y), MOLM-14 (ITD, F691 L)); test: Cell cycle analysis (PI flow cytometry); type: cell-based, human; details: 24 h and 48 h
Experimental: Cells seeded into T-25 flasks at a density of 8.0 × 10^4 cells/mL and incubated overnight at 37 °C with 5% CO2. Each treatment was performed in triplicates, with three flasks per treatment each with enough volume for both assays at the applicable time points. Following the overnight incubation, cells were treated with either DMSO or different concentrations of HSN431 (as indicated) in triplicates, mixed well and incubated. At each time point (24 and 48 h), aliquots of 1.5 mL of cells were collected from each flask and placed into labeled FACS tubes (for Annexin V apoptosis) or labeled 15 cc conical tubes (for cell cycle) and centrifuged at 300 × g for 5 min. Cells were washed twice with 1× PBS.
For cell cycle, cell pellets were resuspended in 0.5 mL PBS in 15 cc conical tubes and fixed with 4.5 mL of 70% ethanol. Fixed cells were stored at −20 °C until analysis with the Propidium Iodide (PI) Flow Cytometry Kit (cat. no. ab139418, Abcam, Cambridge, MA, USA). Samples were analyzed in duplicates on a FACSCanto II flow cytometer (BD Bioscience, San Jose, CA, USA) and cell cycle distribution was analyzed using the Watson algorithm analysis in FlowJo software (Flowjo, LLC, Ashland, OR).

Cc1ncc(C(=O)Nc2ccc(CN3CCN(C)CC3)c(C(F)(F)F)c2)cc1C#Cc1c(N)ncc2ccc(F)cc12 [Compound 7] was tested, and the “adverse events / signs of toxicity on repeated dosing” value (MV4–11-luc cells; 25 mg/kg IP 3×/week for several weeks, listed as HSN431) was “without any adverse events; also recorded: without any obvious signs of toxicity”, the “reduction in leukemia burden” value (MV4–11-luc cells; 25 mg/kg i.p. three times a week (MWF), NSG or NRG mice) was greater than 99% and the “Photon intensity on whole body (mean±SEM)” value (MV4–11-luc cells; Day 1, n = 5) was 130000 ± 21400. For the same compound, the “Photon intensity on whole body (mean±SEM)” value (MV4–11-luc cells; Day 27, n = 5) was 4570 ± 615, the “Photon intensity on whole body (mean±SEM)” value (MV4–11-luc cells; Day 41, n = 5) was 19600 ± 3730 and the “Photon intensity on whole body (mean±SEM)” value (MV4–11-luc cells; Day 73, n = 5) was 4390 ± 140. The survival (MV4–11-luc cells; after day 73, 25 mg/kg IP 3×/week, n = 5) was “all five mice were still alive”, the mice still alive (MV4–11-luc cells; day 40, 25 mg/kg three times per week, all control mice had died) was 100% and the “viable MV4–11 cell count” value (MV4–11 cells) was “decreased in presence of compound in dose-dependent manner”. For the same compound, the c-Myc level (c-Myc) was “modest inhibition”, the “phosphorylation of Akt” value (phospho-Akt) was “decreased phosphorylation” and the “phosphorylation of ERK” value (phospho-ERK) was “inhibition”. The “phosphorylation of FLT3” value (phospho-FLT3) was “inhibition”, the STAT3 phosphorylation (phospho-STAT3) was “inhibited” and the STAT5 phosphorylation (phospho-STAT5) was “inhibited”. For the same compound, the “phosphorylation of Src” value (phospho-Src) was “inhibition”, the “phosphorylation of p38” value (phospho-p38) was “inhibition” and the “phosphorylation of p70S6K” value (phospho-p70S6K) was “decreased phosphorylation”. The “cells in the sub-G1 phase” value [1] was “accumulation”, the “distribution of cells in the S phase” value [1] was “decreases” and the “population of cells in the G0/G1 phase” value ([1]; dose- and time-dependent) was “increase”.
